Laboratory results published in patent US8334316B2, “Substituted organosulfur compounds and methods of using thereof” (ACEA Biosciences, Inc., priority 2004, dated 2012).
Values joined by “and” are separate entries in the source; they are usually repeats but may differ in a detail not shown here. Identical values can stand only once. Marks after values point to notes of the source that are not given here.

Columns and labels:
[1] = tested on: P388 lymphocytic leukemia; experiment: Murine P388 lymphocytic leukemia model (intraperitoneal transplantation), life span; assay type: in vivo, mouse; settings: for Average life span X ± SD: observed within 30 days; for Life span ratio %: vs solvent control
Procedure: Both male and female mice were used.
Preparation and Administration of Test Compounds.
To prepare cancer cells for the P388 murine lymphocytic leukemia model, ascites of a P388 leukemia-bearing mouse were removed under sterile condition. The ascites were diluted in normal saline (1:6 for ascites to normal saline) to prepare cell suspension. 0.2 mL of the cell suspension was then injected intraperitoneally. […] The life span of carrier mice was determined within 30 days. The life span ratio comparing to the negative control group of the carrier mice in each compound treatment group was calculated according to the formula: Life span ratio %=average life span for the compound treatment group/average life span for the negative control group×100% (4)

[2] = tested on: Bcap-37 human breast cancer; experiment: Bcap-37 human breast cancer xenograft in nude mice, dosing from 24 h after transplantation (Example 3); assay type: in vivo; settings: for tumor inhibition rate %: vs solvent control
Description: (§1) Both male and female mice were used. […] Test control. […] Preparation and Administration of Test Compounds. […] For human tumor xenograft model, all used materials, including animal food, animal cage, supporting materials and apparatus contacted by animals, were high-pressure sterilized. Nude mice were maintained in laminar flow shelves under SPF condition. After tumor transplantation, mouse weight and tumor size in each compound dosage group were dynamically monitored and plotted.

[3] = tested on: HCT-8 human colon cancer; experiment: HCT-8 human colon cancer xenograft in nude mice (Example 3); assay type: in vivo
Description: as §1

[4] = 8 mg/kg iv x7 qd, 7 days after transplantation
[5] = 20 mg/kg iv x7 qd, 7 days after transplantation
[6] = 50 mg/kg iv x7 qd, 7 days after transplantation
[7] = 8 mg/kg/d iv x7 qd, 7 day after transplantation
[8] = 20 mg/kg/d iv x7 qd, 7 day after transplantation

## Fc1ccc(CSSSCc2ccc(F)cc2)cc1 [ACEA100108, Di(p-fluorobenzyl)trisulfide]
[1]; 12.5 mg/kg/d iv x7 qd
  animal No. beginning/end (survivors): 10/0
  Average life span X ± SD: 10.6 ± 0.84
  Life span ratio %: 109.28%
[1]; 25 mg/kg/d iv x7 qd
  animal No. beginning/end (survivors): 10/0
  Average life span X ± SD: 10.4 ± 1.17
  Life span ratio %: 107.22%
[1]; 50 mg/kg/d iv x7 qd
  animal No. beginning/end (survivors): 10/0
  Average life span X ± SD: 10.3 ± 0.95
  Life span ratio %: 106.18%
[1]; 50, 25, 12.5 mg/kg iv x7 qd
  Anticancer effect on P388 mouse leukemia model: did not exhibit anticancer effect
[2]; [4]
  Mice with palpable tumor / total mice: 4/6††
  Tumor volume (cm^3): 0.01 cm^3
[2]; 8 mg/kg iv x7 qd, 14 d
  Tumor volume (cm^3): 0.068 ± 0.02 cm^3
[2]; 8 mg/kg iv x7 qd, 21 d
  Tumor volume (cm^3): 0.214 ± 0.04 cm^3
[2]; 8 mg/kg iv x7 qd, 24 d (end)
  Tumor volume (cm^3): 0.985 cm^3 and 0.985 ± 0.4 cm^3
[2]; 8 mg/kg/d iv x7 qd
  TV inhibition rate % T/C: 56.15%
  Tumor weight: 1.18 ± 0.23 g
  tumor inhibition rate %: 31.40%
[2]; 8 mg/kg/d iv x7 qd, 0 day (beginning)
  Body weight of mice: 18.0 g and 18 ± 0.6 g
[2]; 8 mg/kg/d iv x7 qd, 7 day
  Body weight of mice: 19.5 ± 1 g
[2]; 8 mg/kg/d iv x7 qd, 14 d
  Body weight of mice: 21.5 ± 1 g
[2]; 8 mg/kg/d iv x7 qd, 21 d
  Body weight of mice: 22.3 ± 1.6 g
[2]; 8 mg/kg/d iv x7 qd, 24 d (end)
  Body weight of mice: 23.0 g and 23 ± 1.5 g
[2]; [5]
  Mice with palpable tumor / total mice: 5/6††
  Tumor volume (cm^3): 0.01 cm^3
[2]; 20 mg/kg iv x7 qd, 14 d
  Tumor volume (cm^3): 0.049 ± 0.03 cm^3
[2]; 20 mg/kg iv x7 qd, 21 d
  Tumor volume (cm^3): 0.167 ± 0.03 cm^3
[2]; 20 mg/kg iv x7 qd, 24 d (end)
  Tumor volume (cm^3): 0.488 cm^3 and 0.488 ± 0.07 cm^3
[2]; 20 mg/kg/d iv x7 qd
  TV inhibition rate % T/C: 27.82%
  Tumor weight: 0.755 ± 0.09 g
  tumor inhibition rate %: 56.10%
[2]; 20 mg/kg/d iv x7 qd, 0 day (beginning)
  Body weight of mice: 17.6 g and 17.6 ± 0.8 g
[2]; 20 mg/kg/d iv x7 qd, 7 day
  Body weight of mice: 19.7 ± 1 g
[2]; 20 mg/kg/d iv x7 qd, 14 d
  Body weight of mice: 20.8 ± 1 g
[2]; 20 mg/kg/d iv x7 qd, 21 d
  Body weight of mice: 22.7 ± 1.2 g
[2]; 20 mg/kg/d iv x7 qd, 24 d (end)
  Body weight of mice: 23.0 g and 23 ± 1.2 g
[2]; [6]
  Mice with palpable tumor / total mice: 3/6††
  Tumor volume (cm^3): 0.01 cm^3
[2]; 50 mg/kg iv x7 qd, 14 d
  Tumor volume (cm^3): 0.023 ± 0.02 cm^3
[2]; 50 mg/kg iv x7 qd, 21 d
  Tumor volume (cm^3): 0.112 ± 0.03 cm^3
[2]; 50 mg/kg iv x7 qd, 24 d (end)
  Tumor volume (cm^3): 0.310 cm^3 and 0.31 ± 0.05 cm^3
[2]; 50 mg/kg/d iv x7 qd
  TV inhibition rate % T/C: 17.67%
  Tumor weight: 0.617 ± 0.09 g
  tumor inhibition rate %: 64.13%
[2]; 50 mg/kg/d iv x7 qd, 0 day (beginning)
  Body weight of mice: 18.1 g and 18.1 ± 1.1 g
[2]; 50 mg/kg/d iv x7 qd, 7 day
  Body weight of mice: 18.8 ± 0.8 g
[2]; 50 mg/kg/d iv x7 qd, 14 d
  Body weight of mice: 20.5 ± 1 g
[2]; 50 mg/kg/d iv x7 qd, 21 d
  Body weight of mice: 22.2 ± 1.2 g
[2]; 50 mg/kg/d iv x7 qd, 24 d (end)
  Body weight of mice: 23.0 g and 23 ± 1.2 g
[3]; 8 mg/kg/d iv x7 qd
  TV inhibition rate % T/C: 55.73%
  Tumor weight: 1.30 ± 0.23 g
[3]; 8 mg/kg/d iv x7 qd, 0 Day (beginning)
  Mouse Body weight: 18.8 g and 18.8 ± 0.8 g
[3]; 8 mg/kg/d iv x7 qd, 7 d
  Mouse Body weight: 19.7 ± 0.8 g
[3]; [7]
  Mice with palpable tumor / total mice: 6/6††
  Tumor volume (cm^3): 0.01 cm^3
[3]; 8 mg/kg/d iv x7 qd, 14 d
  Mouse Body weight: 21.3 ± 1.2 g
  Tumor volume (cm^3): 0.166 ± 0.05 cm^3
[3]; 8 mg/kg/d iv x7 qd, 21 d
  Mouse Body weight: 21.8 ± 1.2 g
  Tumor volume (cm^3): 0.379 ± 0.04 cm^3
[3]; 8 mg/kg/d iv x7 qd, 25 d (end)
  Mouse Body weight: 22.5 g and 22.5 ± 1 g
  Tumor volume (cm^3): 0.870 cm^3 and 0.87 ± 0.15 cm^3
[3]; 8 mg/kg/d iv x7 qd, vs solvent control
  tumor inhibition rate %: 15.03%
[3]; 20 mg/kg/d iv x7 qd
  TV inhibition rate % T/C: 41.89%
  Tumor weight: 1.10 ± 0.23 g
[3]; 20 mg/kg/d iv x7 qd, 0 Day (beginning)
  Mouse Body weight: 18.5 g and 18.5 ± 1 g
[3]; 20 mg/kg/d iv x7 qd, 7 d
  Mouse Body weight: 19.5 ± 1 g
[3]; [8]
  Mice with palpable tumor / total mice: 6/6††
  Tumor volume (cm^3): 0.01 cm^3
[3]; 20 mg/kg/d iv x7 qd, 14 d
  Mouse Body weight: 20.7 ± 1 g
  Tumor volume (cm^3): 0.122 ± 0.04 cm^3
[3]; 20 mg/kg/d iv x7 qd, 21 d
  Mouse Body weight: 21.8 ± 1.2 g
